How the values were obtained:
[1] = system: PBMC from mite-allergic patient; assay: primary T cell (PBMC) proliferation, mite-allergic patient, tritiated thymidine; type: cell-based, human; settings: medium 1071 ± 30
Procedure, shortened: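 Ficoll-purified PBMC (5×10^4/well, triplicate) from one mite-allergic donor cultured 7 days at 37 °C with graded concentrations of purified Der p I, Der p II or their peptides in RPMI-1640 plus 5% human AB serum. 1 μCi ^3H-thymidine added for 16 h; CPM counted, stimulation index = antigen CPM/medium-only CPM.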

[2] = system: T cell lines primed in vitro to Der p II; assay: secondary proliferation of Der p II-primed T cell lines (Examples VIII, X, XI); type: cell-based, human; settings: Der p II T-cell map and analogs
Procedure, shortened: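 PBMC from house dust mite-allergic patients primed in vitro with native or recombinant Der p II at 20 μg/ml (or recombinant at 3 μg/ml), with x-irradiated (3500 Rads) autologous PBMC as antigen-presenting cells. Lines then challenged with Der p II-derived peptides; proliferation expressed as S.I., ranked sum scoring top three responses 3, 2, 1.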

Row | Substance | CPM ± S.D. ([1]; 10 μg/ml) [CPM] | CPM ± S.D. ([1]; 30 μg/ml) [CPM] | CPM ± S.D. ([1]; 100 μg/ml) [CPM] | T-cell reactivity (DPII-22 series development) [2]
1 | DP I-3: Der p I peptide (TVTPIRMQGGCGSCWAFSGVAATESAYLA) | 2608 ± 52 | 1561 ± 13 | 5252 ± 67 | 
2 | DP II-22: QLEAVFEANQNTKTAKIEIKASIDGLEV |  |  |  | exhibits most of the reactivity found in the individual peptides
3 | DP II-22.14: DKELEAVFEANQNTKTAKAE; unique peptide |  |  |  | almost the same T-cell reactivity as the "parent" peptide
4 | DP I-1: Der p I peptide, amino acid residues 1-20 (TNACSINGNAPAEIDLRQMR) | 1099 ± 48 | 3527 ± 73 | 2746 ± 81 | 
